The test system of one data set is Neisseria gonorrhoeae. Kind of data set: MIC50 by CLSI agar dilution on a panel of N. gonorrhoeae clinical isolates. Type of data set: cell-based. The conditions noted are these: Neisseria gonorrhoeae. As to the method:
MIC50: MICs were determined in accordance with the appropriate Clinical and Laboratory Standards Institute (CLSI) methodology by the agar dilution susceptbility testing method in GC agar base.
On the technique in general: In agar dilution, organisms are placed on agar that contains the substance at set levels.

The nature of data set [1]: Mouse cassette PK and oral bioavailability determination. The settings on record: female, BALB/c, mouse, plasma; iv 1 mg/kg, po 2 mg/kg, cassette dosing; read-out: Mouse F (%). Type of data set: in vivo, Female BALB/c mice. Here is the method: Dose volumes were 5 ml/kg and 10 ml/kg for IV and oral administration, respectively. Compounds were co-formulated in a 10% DMSO (v/v) and 40% Captisol (w/v) in saline solution formulation (up to 3 compounds in a cassette). […] Tmax, Cmax, AUC, clearance, volume of distribution and oral bioavailability were estimated from the plasma concentrations using non-compartmental pharmacokinetic models. In particular, oral bioavailability (F %) was defined as F=(Doseiv*AUCpo)/(Dosepo*AUCiv)*100

For data set [2], the target named is Neisseria gonorrhoeae FabI (Neisseria gonorrhoeae, UniProt A0ACH0F547). The data set is described as follows: Neisseria gonorrhoeae FabI inhibition assay (NADH consumption).
Data set [3] can be described thus: Prediction of hepatic extraction ratio from liver microsome stability. Type of data set: in vitro ADME. The conditions noted are these: human liver microsomes, Well-Stirred model.
The mark [4] stands for this setting: agar dilution, GC agar base, minimum of 15 clinical isolates, read-out: MIC50.

Like-named read-outs stand apart in the source and are kept apart here.

Chain of Neisseria gonorrhoeae FabI (A0ACH0F547 1-261): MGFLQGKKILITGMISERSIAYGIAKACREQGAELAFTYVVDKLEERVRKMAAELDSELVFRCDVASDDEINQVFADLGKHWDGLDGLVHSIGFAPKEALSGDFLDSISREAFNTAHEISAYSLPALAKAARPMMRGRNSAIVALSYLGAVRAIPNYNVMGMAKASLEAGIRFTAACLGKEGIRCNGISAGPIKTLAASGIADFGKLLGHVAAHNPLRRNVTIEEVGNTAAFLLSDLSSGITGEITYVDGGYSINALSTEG

Turning to `Cc1oc2c(Oc3ccc4c(c3)OCO4)cccc2c1CN(C)C(=O)/C=C/c1cnc2c(c1)NC[C@@](C)(O)C(=O)N2` [Compound 176, (R,E)-N-((7-(benzo[d][1,3]dioxol-5-yloxy)-2-methylbenzofuran-3-yl)methyl)-3-(3-hydroxy-3-methyl-4-oxo-2,3,4,5-tetrahydro-1H-pyrido[2,3-b][1,4]diazepin-8-yl)-N-methylacrylamide], in the data set with Neisseria gonorrhoeae (setting [4]), the MIC50 is less than 1 µg/mL. Moreover, the bioavailability in data set [1] came to 44%. Further, in data set [2], the IC50 was less than 10 nM. The “Predict Human hep ER” value in data set [3] is given as 0.07.

On to `COc1cccc(Oc2cccc3c(CN(C)C(=O)/C=C/c4cnc5c(c4)NC[C@@](C)(O)C(=O)N5)c(C)oc23)c1` [Compound 183, (R,E)-3-(3-hydroxy-3-methyl-4-oxo-2,3,4,5-tetrahydro-1H-pyrido[2,3-b][1,4]diazepin-8-yl)-N-((7-(3-methoxyphenoxy)-2-methylbenzofuran-3-yl)methyl)-N-methylacrylamide], for which the MIC50 in the data set on Neisseria gonorrhoeae (setting [4]) was less than 1 µg/mL. The bioavailability in data set [1] worked out at 16%. The same compound registered an IC50 in data set [2] of less than 10 nM.

For the compound `Cc1oc2c(N)cccc2c1CN(C)C(=O)/C=C/c1cnc2c(c1)NC(C)(C)C(=O)N2` [Compound 287, (E)-N-((7-amino-2-methylbenzofuran-3-yl)methyl)-3-(2,2-dimethyl-3-oxo-1,2,3,4-tetrahydropyrido[2,3-b]pyrazin-7-yl)-N-methylacrylamide], in the data set on Neisseria gonorrhoeae (setting [4]), the MIC50 is less than 1 µg/mL. In data set [2], the IC50 is less than 10 nM. In data set [3], the “Predict Human hep ER” value is listed as 0.34.

In the case of `Cc1oc2c(N)cccc2c1CN(C)C(=O)/C=C/c1cnc2c(c1)NC[C@H](O)C(=O)N2` [Compound 276, (S,E)-N-((7-amino-2-methylbenzofuran-3-yl)methyl)-3-(3-hydroxy-4-oxo-2,3,4,5-tetrahydro-1H-pyrido[2,3-b][1,4]diazepin-8-yl)-N-methylacrylamide], the MIC50 in the data set on Neisseria gonorrhoeae (setting [4]) is less than 1 µg/mL. Besides, the bioavailability in data set [1] worked out at 43%. In data set [2], the IC50 was less than 10 nM.

With `COc1cccc(Oc2cccc3c(CN(C)C(=O)/C=C/c4cnc5c(c4)CCCC(=O)N5)c(C)sc23)c1` [Compound 194, (E)-N-((7-(3-methoxyphenoxy)-2-methylbenzo[b]thiophen-3-yl)methyl)-N-methyl-3-(8-oxo-6,7,8,9-tetrahydro-5H-pyrido[2,3-b]azepin-3-yl)acrylamide], in the data set with Neisseria gonorrhoeae (setting [4]), the MIC50 was less than 1 µg/mL. Also, the bioavailability in data set [1] worked out at 12%. The IC50 in data set [2] is less than 10 nM.

`Cc1oc2c(Oc3ccc4c(c3)CCN4)cccc2c1CN(C)C(=O)/C=C/c1cnc2c(c1)CCCC(=O)N2` [Compound 180, (E)-N-((7-(indolin-5-yloxy)-2-methylbenzofuran-3-yl)methyl)-N-methyl-3-(8-oxo-6,7,8,9-tetrahydro-5H-pyrido[2,3-b]azepin-3-yl)acrylamide]: the MIC50 with Neisseria gonorrhoeae (setting [4]) is less than 1 µg/mL. Moreover, the IC50 in data set [2] is less than 10 nM.

On to `CCC1(O)Cc2cc(/C=C/C(=O)N(C)Cc3oc4ccccc4c3C)cnc2NC1=O` (stereo not drawn) [Compound 252, (E)-3-(6-ethyl-6-hydroxy-7-oxo-5,6,7,8-tetrahydro-1,8-naphthyridin-3-yl)-N-methyl-N-((3-methylbenzofuran-2-yl)methyl)acrylamide], for which the MIC50 in the data set with Neisseria gonorrhoeae (setting [4]) was less than 1 µg/mL. The compound further had an IC50 in data set [2] of less than 10 nM.

For `Cc1c(CN(C)C(=O)/C=C/c2cnc3c(c2)NC(C)(CO)C(=O)N3)oc2ccccc12` (stereo not drawn) [Compound 84, (E)-3-(2-(Hydroxymethyl)-2-methyl-3-oxo-1,2,3,4-tetrahydropyrido[2,3-b]pyrazin-7-yl)-N-methyl-N-((3-methylbenzofuran-2-yl)methyl)acrylamide], the MIC50 with Neisseria gonorrhoeae (setting [4]) is less than 1 µg/mL. In data set [2], this compound gave an IC50 of less than 10 nM.

On to `Cc1c(CN(C)C(=O)/C=C/c2cnc3c(c2)NC(C)(C)C(=O)N3)oc2ccccc12` [Compound 19, (E)-3-(2,2-dimethyl-3-oxo-1,2,3,4-tetrahydropyrido[2,3-b]pyrazin-7-yl)-N-methyl-N-((3-methylbenzofuran-2-yl)methyl)acrylamide], for which the MIC50 in the data set with Neisseria gonorrhoeae (setting [4]) is less than 1 µg/mL. In data set [2], this compound displayed an IC50 of less than 10 nM.

In the case of `Cc1c(CN(C)C(=O)/C=C/c2cnc3c(c2)C[C@@](C)(O)C(=O)N3)oc2ccccc12` (single isomer, unassigned) [Compound 247], the MIC50 against Neisseria gonorrhoeae was less than 1 µg/mL. The compound further displayed a 50% inhibitory concentration (IC50) in data set [2] of less than 10 nM.

In the case of `Cc1oc2c(N)cccc2c1CN(C)C(=O)/C=C/c1cnc2c(c1)N[C@H](C)[C@H](O)C(=O)N2` [Compound 290, (E)-N-((7-amino-2-methylbenzofuran-3-yl)methyl)-3-((2R,3S)-3-hydroxy-2-methyl-4-oxo-2,3,4,5-tetrahydro-1H-pyrido[2,3-b][1,4]diazepin-8-yl)-N-methylacrylamide], the MIC50 with Neisseria gonorrhoeae (setting [4]) was less than 1 µg/mL. For the same compound, in data set [2], the IC50 was less than 10 nM. In addition, the “Predict Human hep ER” value in data set [3] is given as 0.1.

Take `COc1cccc(Oc2cccc3c(CN(C)C(=O)/C=C/c4cnc5c(c4)CCCC(=O)N5)c(C)oc23)c1` [Compound 186, (E)-N-((7-(3-methoxyphenoxy)-2-methylbenzofuran-3-yl)methyl)-N-methyl-3-(8-oxo-6,7,8,9-tetrahydro-5H-pyrido[2,3-b]azepin-3-yl)acrylamide]: the MIC50 with Neisseria gonorrhoeae (setting [4]) is less than 1 µg/mL. Also, in data set [2], the IC50 is less than 10 nM.

Take `Cc1oc2ccccc2c1CN(C)C(=O)/C=C/c1cnc2c(c1)NC[C@@](C)(CO)C(=O)N2` (single isomer, unassigned) [Compound 40]: the MIC50 in the data set on Neisseria gonorrhoeae (setting [4]) was less than 1 µg/mL. The compound also gave an IC50 in data set [2] of less than 10 nM.

On to `Cc1oc2c(N)cccc2c1CN(C)C(=O)/C=C/c1cnc2c(c1)NCC(C)(C)C(=O)N2` [Compound 109, (E)-N-((7-Amino-2-methylbenzofuran-3-yl)methyl)-3-(3,3-dimethyl-4-oxo-2,3,4,5-tetrahydro-1H-pyrido[2,3-b][1,4]diazepin-8-yl)-N-methylacrylamide], for which, in the data set with Neisseria gonorrhoeae (setting [4]), the MIC50 was less than 1 µg/mL. Besides, the IC50 in data set [2] is less than 10 nM.

In the case of `Cc1c(CN(C)C(=O)/C=C/c2cnc3c(c2)NC[C@@](C)(O)C(=O)N3)oc2cccc(N)c12` [Compound 143, (R,E)-N-((4-amino-3-methylbenzofuran-2-yl)methyl)-3-(3-hydroxy-3-methyl-4-oxo-2,3,4,5-tetrahydro-1H-pyrido[2,3-b][1,4]diazepin-8-yl)-N-methylacrylamide], the MIC50 in the data set on Neisseria gonorrhoeae (setting [4]) was less than 1 µg/mL. Moreover, the half-inhibitory concentration (IC50) in data set [2] was less than 10 nM.

With `Cc1c(CN(C)C(=O)/C=C/c2cnc3c(c2)N[C@](C)(CO)C(=O)N3)oc2ccccc12` (single isomer, unassigned) [Compound 209], in the data set on Neisseria gonorrhoeae (setting [4]), the MIC50 is less than 1 µg/mL. Moreover, the IC50 in data set [2] is less than 10 nM.

As to `Cc1c(CN(C)C(=O)/C=C/c2cnc3c(c2)NCC(C)(CO)C(=O)N3)oc2ccccc12` (stereo not drawn) [Compound 31, (E)-3-(3-(hydroxymethyl)-3-methyl-4-oxo-2,3,4,5-tetrahydro-1H-pyrido[2,3-b][1,4]diazepin-8-yl)-N-methyl-N-((3-methylbenzofuran-2-yl)methyl)acrylamide], the MIC50 with Neisseria gonorrhoeae (setting [4]) is less than 1 µg/mL. This compound displayed a half-inhibitory concentration (IC50) in data set [2] of less than 10 nM.

For `Cc1c(CN(C)C(=O)/C=C/c2cnc3c(c2)NC[C@H](O)C(=O)N3)oc2ccccc12` [Compound 230, (S,E)-3-(3-Hydroxy-4-oxo-2,3,4,5-tetrahydro-1H-pyrido[2,3-b][1,4]diazepin-8-yl)-N-methyl-N-((3-methylbenzofuran-2-yl)methyl)acrylamide], the MIC50 with Neisseria gonorrhoeae (setting [4]) was less than 1 µg/mL. Moreover, the IC50 in data set [2] was less than 10 nM.

`Cc1oc2c(N)cccc2c1CN(C)C(=O)/C=C/c1cnc2c(c1)NCCC(=O)N2` [Compound 75, (E)-N-((7-Amino-2-methylbenzofuran-3-yl)methyl)-N-methyl-3-(4-oxo-2,3,4,5-tetrahydro-1H-pyrido[2,3-b][1,4]diazepin-8-yl)acrylamide]: the MIC50 in the data set on Neisseria gonorrhoeae (setting [4]) was less than 1 µg/mL. Further, in data set [2], the IC50 is less than 10 nM.

As for `Cc1c(CN(C)C(=O)/C=C/c2cnc3c(c2)CCCC(=O)N3)oc2cccc(N)c12` [Compound 5, (E)-N-((4-amino-3-methylbenzofuran-2-yl)methyl)-N-methyl-3-(8-oxo-6,7,8,9-tetrahydro-5H-pyrido[2,3-b]azepin-3-yl)acrylamide], the MIC50 in the data set on Neisseria gonorrhoeae (setting [4]) was less than 1 µg/mL. The compound also returned an IC50 in data set [2] of less than 10 nM.

For the compound `Cc1oc2c(Oc3ccc4c(c3)OCO4)cccc2c1CN(C)C(=O)/C=C/c1cnc2c(c1)NCCC(=O)N2` [Compound 119, (E)-N-((7-(Benzo[d][1,3]dioxol-5-yloxy)-2-methylbenzofuran-3-yl)methyl)-N-methyl-3-(4-oxo-2,3,4,5-tetrahydro-1H-pyrido[2,3-b][1,4]diazepin-8-yl)acrylamide], the MIC50 in the data set with Neisseria gonorrhoeae (setting [4]) is less than 1 µg/mL. Besides, in data set [2], the IC50 was less than 10 nM. The “Predict Human hep ER” value in data set [3] is reported as 0.08.

Consider `Cc1c(CN(C)C(=O)/C=C/c2cnc3c(c2)NCC(CO)C(=O)N3)oc2ccccc12` (stereo not drawn) [Compound 270, (E)-3-(3-(hydroxymethyl)-4-oxo-2,3,4,5-tetrahydro-1H-pyrido[2,3-b][1,4]diazepin-8-yl)-N-methyl-N-((3-methylbenzofuran-2-yl)methyl)acrylamide], for which, in the data set on Neisseria gonorrhoeae (setting [4]), the MIC50 was less than 1 µg/mL. This compound came in with an IC50 in data set [2] of less than 10 nM.

Regarding `Cc1c(CN(C)C(=O)/C=C/c2cnc3c(c2)NCCC(=O)N3)oc2cccc(N)c12` [Compound 7, (E)-N-((4-amino-3-methylbenzofuran-2-yl)methyl)-N-methyl-3-(4-oxo-2,3,4,5-tetrahydro-1H-pyrido[2,3-b][1,4]diazepin-8-yl)acrylamide], the MIC50 in the data set with Neisseria gonorrhoeae (setting [4]) was less than 1 µg/mL. The same compound came in with an IC50 in data set [2] of less than 10 nM.

As usually defined, the MIC50 is the lowest concentration that inhibits either 50% of growth or 50% of the strains tested, depending on the study. The term IC50 denotes the midpoint of a concentration-inhibition curve. Lower therefore signals inhibition by little substance.

(Values after patent US12545672B2, “Antibiotic compounds, methods of manufacturing the same, pharmaceutical compositions containing the same and uses thereof” (Debiopharm International S.A., priority 2018, dated 2026).)
